Assay results published in patent US7399866B2, “Compounds, compositions, and methods” (Cytokinetics, Inc., priority 2003, dated 2008).

CC(=O)N1CCC[C@@H](Oc2cc(F)cc(NC(=O)Nc3cccnc3)c2)C1 [Example 1, (R)-1-[3-(1-Acetyl-piperidin-3-yloxy)-5-fluoro-phenyl]-3-pyridin-3-yl-urea]
melting point: 145 °C
